Results as given in ChEMBL document CHEMBL5724914, “Linking interpersonal differences in gut microbiota composition and drug biotransformation activity” (2024).

Tests used:
[1] = human gut metagenome, 24 h, 2 µM
[2] = (§1) The drug is tested on WLS-170 corresponding to human gut metagenome with ENA study accession number: PRJEB37062 and ENA sample accession number: ERS12561762 for biotransformation under anaerobic condition. The drug concentrations were measured over 9 timepoints collected between 0 and 24 hours of incubation by liquid-chromatography-coupled mass spectrometry (LC–MS); conditions: 2 µM
[3] = human gut metagenome, 24 h, 2 µM; remark: listed apart in the source
[4] = human gut metagenome, 24 h, 2 µM; remark: listed apart in the source
[5] = as §1, with “Z-021” for “WLS-170”, “to” for “to human gut”, “ERS12561820” for “ERS12561762”; conditions: 2 µM
[6] = human gut metagenome, 24 h, 2 µM; remark: listed apart in the source
[7] = as §1, with “Z-023” for “WLS-170”, “to” for “to human gut”, “ERS12561822” for “ERS12561762”; conditions: 2 µM
[8] = as §1, with “Z-010” for “WLS-170”, “to” for “to human gut”, “ERS12561810” for “ERS12561762”; conditions: 2 µM
[9] = human gut metagenome, 24 h, 2 µM; remark: listed apart in the source
[10] = human gut metagenome, 24 h, 2 µM; remark: listed apart in the source
[11] = human gut metagenome, 24 h, 2 µM; remark: listed apart in the source
[12] = human gut metagenome, 24 h, 2 µM; remark: listed apart in the source
[13] = human gut metagenome, 24 h, 2 µM; remark: listed apart in the source
[14] = as §1, with “Z-016” for “WLS-170”, “mouse” for “human”, “ERS12561815” for “ERS12561762”; conditions: 2 µM
[15] = human gut metagenome, 24 h, 2 µM; remark: listed apart in the source
[16] = human gut metagenome, 24 h, 2 µM; remark: listed apart in the source
[17] = human gut metagenome, 24 h, 2 µM; remark: listed apart in the source
[18] = as §1, with “WLS-007” for “WLS-170”, “ERS12561742” for “ERS12561762”; conditions: 2 µM
[19] = as §1, with “Z-019” for “WLS-170”, “rat” for “human”, “ERS12561818” for “ERS12561762”; conditions: 2 µM
[20] = as §1, with “WLS-077” for “WLS-170”, “ERS12561750” for “ERS12561762”; conditions: 2 µM
Further: call rule not given here.

SMILES: CC(C)(C)NC[C@H](O)COc1nsnc1N1CCOCC1.O=C(O)/C=C\C(=O)O [TIMOLOL MALEATE]
- Bacterial Biotransformation [1]: Compound NOT metabolized
- Bacterial Biotransformation [2]: Compound NOT metabolized
- Bacterial Biotransformation [3]: Compound NOT metabolized
- Bacterial Biotransformation [4]: Compound NOT metabolized
- Bacterial Biotransformation [5]: Compound NOT metabolized
- Bacterial Biotransformation [6]: Compound NOT metabolized
- Bacterial Biotransformation [7]: Compound NOT metabolized
- Bacterial Biotransformation [8]: Compound NOT metabolized
- Bacterial Biotransformation [9]: Compound NOT metabolized
- Bacterial Biotransformation [10]: Compound NOT metabolized
- Bacterial Biotransformation [11]: Compound NOT metabolized
- Bacterial Biotransformation [12]: Compound NOT metabolized
- Bacterial Biotransformation [13]: Compound NOT metabolized
- Bacterial Biotransformation [14]: Compound NOT metabolized
- Bacterial Biotransformation [15]: Compound NOT metabolized
- Bacterial Biotransformation [16]: Compound NOT metabolized
- Bacterial Biotransformation [17]: Compound NOT metabolized
- Bacterial Biotransformation [18]: Compound NOT metabolized
- Bacterial Biotransformation [19]: Compound NOT metabolized
- Bacterial Biotransformation [20]: Compound NOT metabolized

SMILES: CC[C@@]1(O)C(=O)OCc2c1cc1n(c2=O)Cc2cc3c(CN(C)C)c(O)ccc3nc2-1 [TOPOTECAN]
- Bacterial Biotransformation [1]: Compound NOT metabolized
- Bacterial Biotransformation [2]: Compound NOT metabolized
- Bacterial Biotransformation [3]: Compound NOT metabolized
- Bacterial Biotransformation [4]: Compound NOT metabolized
- Bacterial Biotransformation [5]: Compound NOT metabolized
- Bacterial Biotransformation [6]: Compound NOT metabolized
- Bacterial Biotransformation [7]: Compound NOT metabolized
- Bacterial Biotransformation [8]: Compound NOT metabolized
- Bacterial Biotransformation [9]: Compound NOT metabolized
- Bacterial Biotransformation [10]: Compound NOT metabolized
- Bacterial Biotransformation [11]: Compound NOT metabolized
- Bacterial Biotransformation [12]: Compound NOT metabolized
- Bacterial Biotransformation [13]: Compound NOT metabolized
- Bacterial Biotransformation [14]: Compound NOT metabolized
- Bacterial Biotransformation [15]: Compound NOT metabolized
- Bacterial Biotransformation [16]: Compound NOT metabolized
- Bacterial Biotransformation [17]: Compound NOT metabolized
- Bacterial Biotransformation [18]: Compound NOT metabolized
- Bacterial Biotransformation [19]: Compound NOT metabolized
- Bacterial Biotransformation [20]: Compound NOT metabolized

SMILES: CC(C)(C)NCC(O)COc1cccc2c1CC(O)C(O)C2 (stereo not given) [NADOLOL]
- Bacterial Biotransformation [1]: Compound metabolized
- Bacterial Biotransformation [2]: Compound metabolized
- Bacterial Biotransformation [3]: Compound NOT metabolized
- Bacterial Biotransformation [4]: Compound NOT metabolized
- Bacterial Biotransformation [5]: Compound NOT metabolized
- Bacterial Biotransformation [6]: Compound metabolized
- Bacterial Biotransformation [7]: Compound NOT metabolized
- Bacterial Biotransformation [8]: Compound metabolized
- Bacterial Biotransformation [9]: Compound NOT metabolized
- Bacterial Biotransformation [10]: Compound metabolized
- Bacterial Biotransformation [11]: Compound NOT metabolized
- Bacterial Biotransformation [12]: Compound metabolized
- Bacterial Biotransformation [13]: Compound NOT metabolized
- Bacterial Biotransformation [14]: Compound NOT metabolized
- Bacterial Biotransformation [15]: Compound NOT metabolized
- Bacterial Biotransformation [16]: Compound metabolized
- Bacterial Biotransformation [17]: Compound NOT metabolized
- Bacterial Biotransformation [18]: Compound NOT metabolized
- Bacterial Biotransformation [19]: Compound NOT metabolized
- Bacterial Biotransformation [20]: Compound metabolized

SMILES: CN(C)C(=O)Oc1cc(OC(=O)N(C)C)cc(C(O)CNC(C)(C)C)c1 (stereo not given) [BAMBUTEROL]
- Bacterial Biotransformation [1]: Compound NOT metabolized
- Bacterial Biotransformation [2]: Compound NOT metabolized
- Bacterial Biotransformation [3]: Compound metabolized
- Bacterial Biotransformation [4]: Compound metabolized
- Bacterial Biotransformation [5]: Compound metabolized
- Bacterial Biotransformation [6]: Compound metabolized
- Bacterial Biotransformation [7]: Compound metabolized
- Bacterial Biotransformation [8]: Compound NOT metabolized
- Bacterial Biotransformation [9]: Compound NOT metabolized
- Bacterial Biotransformation [10]: Compound metabolized
- Bacterial Biotransformation [11]: Compound NOT metabolized
- Bacterial Biotransformation [12]: Compound metabolized
- Bacterial Biotransformation [13]: Compound NOT metabolized
- Bacterial Biotransformation [14]: Compound NOT metabolized
- Bacterial Biotransformation [15]: Compound metabolized
- Bacterial Biotransformation [16]: Compound NOT metabolized
- Bacterial Biotransformation [17]: Compound metabolized
- Bacterial Biotransformation [18]: Compound metabolized
- Bacterial Biotransformation [19]: Compound NOT metabolized
- Bacterial Biotransformation [20]: Compound NOT metabolized

SMILES: CC(NC(C)(C)C)C(=O)c1cccc(Cl)c1 (stereo not given) [BUPROPION]
- Bacterial Biotransformation [1]: Compound metabolized
- Bacterial Biotransformation [2]: Compound NOT metabolized
- Bacterial Biotransformation [3]: Compound NOT metabolized
- Bacterial Biotransformation [4]: Compound NOT metabolized
- Bacterial Biotransformation [5]: Compound NOT metabolized
- Bacterial Biotransformation [6]: Compound metabolized
- Bacterial Biotransformation [7]: Compound NOT metabolized
- Bacterial Biotransformation [8]: Compound NOT metabolized
- Bacterial Biotransformation [9]: Compound NOT metabolized
- Bacterial Biotransformation [10]: Compound NOT metabolized
- Bacterial Biotransformation [11]: Compound NOT metabolized
- Bacterial Biotransformation [12]: Compound NOT metabolized
- Bacterial Biotransformation [13]: Compound NOT metabolized
- Bacterial Biotransformation [14]: Compound NOT metabolized
- Bacterial Biotransformation [15]: Compound NOT metabolized
- Bacterial Biotransformation [16]: Compound NOT metabolized
- Bacterial Biotransformation [17]: Compound NOT metabolized
- Bacterial Biotransformation [18]: Compound NOT metabolized
- Bacterial Biotransformation [19]: Compound NOT metabolized
- Bacterial Biotransformation [20]: Compound NOT metabolized

SMILES: CC(C)(C)N.CCC[C@H](N[C@@H](C)C(=O)N1[C@H](C(=O)O)C[C@@H]2CCCC[C@@H]21)C(=O)OCC [PERINDOPRIL ERBUMINE]
- Bacterial Biotransformation [1]: Compound metabolized
- Bacterial Biotransformation [2]: Compound metabolized
- Bacterial Biotransformation [3]: Compound metabolized
- Bacterial Biotransformation [4]: Compound metabolized
- Bacterial Biotransformation [5]: Compound NOT metabolized
- Bacterial Biotransformation [6]: Compound metabolized
- Bacterial Biotransformation [7]: Compound metabolized
- Bacterial Biotransformation [8]: Compound metabolized
- Bacterial Biotransformation [9]: Compound metabolized
- Bacterial Biotransformation [10]: Compound metabolized
- Bacterial Biotransformation [11]: Compound NOT metabolized
- Bacterial Biotransformation [12]: Compound metabolized
- Bacterial Biotransformation [13]: Compound metabolized
- Bacterial Biotransformation [14]: Compound NOT metabolized
- Bacterial Biotransformation [15]: Compound metabolized
- Bacterial Biotransformation [16]: Compound metabolized
- Bacterial Biotransformation [17]: Compound metabolized
- Bacterial Biotransformation [18]: Compound metabolized
- Bacterial Biotransformation [19]: Compound NOT metabolized
- Bacterial Biotransformation [20]: Compound NOT metabolized

SMILES: CC#C[C@]1(O)CC[C@H]2[C@@H]3CCC4=CC(=O)CCC4=C3[C@@H](c3ccc(N(C)C)cc3)C[C@@]21C [MIFEPRISTONE]
- Bacterial Biotransformation [1]: Compound metabolized
- Bacterial Biotransformation [2]: Compound metabolized
- Bacterial Biotransformation [3]: Compound NOT metabolized
- Bacterial Biotransformation [4]: Compound metabolized
- Bacterial Biotransformation [5]: Compound NOT metabolized
- Bacterial Biotransformation [6]: Compound metabolized
- Bacterial Biotransformation [7]: Compound NOT metabolized
- Bacterial Biotransformation [8]: Compound metabolized
- Bacterial Biotransformation [9]: Compound metabolized
- Bacterial Biotransformation [10]: Compound metabolized
- Bacterial Biotransformation [11]: Compound NOT metabolized
- Bacterial Biotransformation [12]: Compound NOT metabolized
- Bacterial Biotransformation [13]: Compound NOT metabolized
- Bacterial Biotransformation [14]: Compound metabolized
- Bacterial Biotransformation [15]: Compound NOT metabolized
- Bacterial Biotransformation [16]: Compound NOT metabolized
- Bacterial Biotransformation [17]: Compound metabolized
- Bacterial Biotransformation [18]: Compound metabolized
- Bacterial Biotransformation [19]: Compound NOT metabolized
- Bacterial Biotransformation [20]: Compound NOT metabolized
